Assay results from PubChem BioAssay AID1259411 (Chemical Carcinogenesis Research Information System (CCRIS), 2018).
Calls of active or inactive are those of the source. The rule behind the calls is not given here.

Test system: rodent carcinogenicity bioassays, tumor incidence
Experiment: CCRIS carcinogenicity studies
Conditions: Species: MOUSE
Summary of the method: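 Archive of carcinogenicity, mutagenicity, tumor promotion and tumor inhibition results drawn from journals, NCI reports and other sources, expert-reviewed; covers 1985-2011 and is no longer updated.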

**Q.** What does the source list for `c1ccc2c(c1)cc1ccc3c4ccccc4cc4ccc2c1c43`?
**A.** carcinogen call (Route: DERMAL, Tumor Site: Type of Lesion: INTEGUMENTARY SYSTEM (SKIN)): active; positive; carcinogen call (Route: SUBCUTANEOUS, Tumor Site: Type of Lesion: INJECTION SITE): active; positive
